This is an account of results in US12539294B2, “Combination of an azetidine LPA1 receptor antagonist with pirfenidone and/or nintedanib for use in the treatment of fibrotic diseases” (Idorsia Pharmaceuticals Ltd, priority 2020, dated 2026).

The IC50 is the concentration that inhibits the measured activity by half.

For data set [1] the following is noted: cited from earlier work.
A further data set concerns NHLF. The experiment in a line: TGFβ-induced αSMA expression in human fibroblasts, combination with nintedanib. The note with it: 1 μM nintedanib, TGFβ 5 ng/ml, 48 h. It is filed as cell-based.
For data set [2], the system named is primary human lung (myo)fibroblasts. The note with it: cited from earlier work; for fibroblast to myofibroblast differentiation and/or pro-fibrotic activity of (myo)fibroblasts: primary human lung (myo)fibroblasts, various conditions.
For a further data set, the target named is T1, human LPA1 receptor (Homo sapiens, UniProt Q92633).
T1 construct: TEV protease site; Gal4-VP16 transcription factor; host or cells: Tango EDG2-bla U2OS cells
T1 sequence (Q92633 whole entry, the tested form may be a part): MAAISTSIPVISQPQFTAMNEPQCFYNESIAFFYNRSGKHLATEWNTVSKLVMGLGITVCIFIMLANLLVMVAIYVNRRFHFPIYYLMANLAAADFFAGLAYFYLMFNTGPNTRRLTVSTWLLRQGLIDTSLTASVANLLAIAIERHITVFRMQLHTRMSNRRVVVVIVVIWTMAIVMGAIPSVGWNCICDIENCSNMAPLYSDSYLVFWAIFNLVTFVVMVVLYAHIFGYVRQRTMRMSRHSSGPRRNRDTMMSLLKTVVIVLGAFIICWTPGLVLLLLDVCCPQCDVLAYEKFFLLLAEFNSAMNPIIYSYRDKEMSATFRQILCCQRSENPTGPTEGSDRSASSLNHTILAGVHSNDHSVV
Kind of data set: Beta-arrestin recruitment assay (Tango EDG2-bla U2OS cells) to determine IC50 values for human LPAR1. It is filed as cell-based. The note with it: antagonist mode, LPA 18:1 500 nM final; geomean where multiple values. From the text:
Biological Assays Beta-Arrestin Recruitment Assay to Determine IC50 values for human LPAR1
The Tango™ EDG2-bla U2OS cells are obtained from Invitrogen. These cells contain the human LPA1 receptor cDNA linked to a TEV protease site and a Gal4-VP16 transcription factor integrated into the Tango™ GPCR-bla U2OS parental cell line. This parental cell line stably expresses a beta-arrestin/TEV protease fusion protein and the beta-lactamase (bla) reporter gene under the control of a UAS response element. Upon LPA (agonist) binding, LPA1 receptor gets activated, leading to arrestin-protease recruitment and proteolytic release of the transcription factor: The transcription factor then regulates transcription of a beta-lactamase reporter construct, which is measured upon addition of the live-cell substrate.
10'000 Tango™ EDG2-bla U2OS cells are seeded in a 384-well black with clear bottom plate in 30 μl Freestyle 293 Expression Medium (Invitrogen) and incubated for 20 h at 37° C., 5% CO2. For antagonist assays, 5 μl of test compound (dilution series in DMSO/Freestyle 293 Expression medium/0.1% fatty acid free BSA (Sigma)) or buffer control are added per well and incubated for 30 min at 37° C., 5% CO2. 5 μl of LPA 18:1 (500 nM final) (solution in Freestyle 293 Expression medium/0.1% fatty acid free BSA (Sigma)) are added per well and the plate incubated for 16 h at 37° C., 5% CO2. Cells are then loaded with LiveBLAzer-FRET™ B/G Substrate (Invitrogen) for 2 h in the dark and the fluorescence emission at 460 nm and 530 nm is measured using the SynergyMx reader (BioTek). Following the background subtraction from both channels, the 460/530 nm emission ratio for each well is calculated, then plotted and fitted to a 4-parameter logistic function to obtain IC50 values. IC50 is the concentration of antagonist inhibiting 50% of the maximal response.
Where multiple values were measured, geomean values are given.
(Recruitment of arrestin is a read-out of receptor activation apart from second messengers.)

For data set [3] the following is noted: cited from earlier work. This is another data set of the same source.
The subject of data set [4] is Normal Human Lung Fibroblasts (NHLF). Kind of data set: TGFβ-induced αSMA expression in human fibroblasts, combination with pirfenidone. It is filed as cell-based. How it is done: The anti-fibrotic effect of the respective Example COMPOUND A-C or Reference COMPOUND D (BMS-986020) and pirfenidone alone or in combination can be determined in vitro in the assay of TGFβ-induced myofibroblast differentiation.
Combination Efficacy Experiment: Transforming Growth Factor Beta (TGFβ)-Induced α-Smooth Muscle Actin (αSMA) Expression in Human Fibroblasts:
Normal Human Lung Fibroblasts (NHLF) were obtained from Lonza. 10'000 cells were seeded in 24-well plates in 300 μl Fibroblast Growth Medium-2 (FGM™-2, Lonza) and incubated for 20 hours at 37° C., 5% CO2. […] Samples were resolved by SDS-PAGE on 4-12% Novex Bis-Tris precast gels (Thermo Fischer Scientific) and analyzed by western blot using αSMA (Sigma) and HRP-coupled secondary antibodies. Membranes were treated with Western Lighting Enhanced Chemiluminescence Substrate (Perkin Elmer) and the chemiluminescence signal was recorded by the reader Fusion FX6 (Viber Lourmat). Signals were quantified using densitometric analysis in Fusion software. % of inhibition of TGFβ-induced αSMA expression was calculated for each COMPOUND, pirfenidone and their combination. Additive effect was calculated by adding the values of % of inhibition by COMPOUND alone and pirfenidone alone and expressed as “expected combo inhibition”. Measured % of inhibition by COMPOUND and pirfenidone combination was expressed as “measured combo inhibition”. […]

The conditions of data set [5]: cited from earlier work. This is another data set of the same source.
Data set [6] deals with LPA-induced vascular leakage. The experiment in a line: mouse LPA-induced skin vascular leakage model. It is filed as in vivo. The note with it: oral administration of 30 mg/kg to mice. On the procedure: The in vivo potency of the compounds of Formula (I) can be determined using a mouse LPA-induced skin vascular leakage model. Female Balb/c mice are treated with either vehicle or test compound (p.o.) for at least 1 h prior to administration of the albumin marker Evans blue (50 mg/kg, i.v., 0.9% NaCl) and subsequent challenge with LPA (5 μg, i.d.). After 30 minutes, mice are sacrificed by CO2 inhalation. Discs of skin from the injection sites are removed, digested in formamide (500 μl, 37° C., 24 hrs) and the content of Evans blue quantified by colorimetric assay. Results are expressed as extravasated Evans blue per skin disc (μg/disc).
As an example, selected compound of the present invention, Ex 5-2, is able to effectively reduce LPA-induced vascular leakage after oral administration of 30 mg/kg to mice as compared to a group of animals treated with vehicle only. Reduction of vascular leakage compared to vehicle group was ≥60%.

As for `CCS(=O)(=O)O.COC(=O)c1ccc2c(c1)NC(=O)/C2=C(\Nc1ccc(N(C)C(=O)CN2CCN(C)CC2)cc1)c1ccccc1` [nintedanib, (3Z)-2,3-dihydro-3-[[[4-[methyl-[(4-methyl-1-piperazinyl)-acetyl]-amino]-phenyl]-amino]-phenylmethylene]-2-oxo-1H-indole-6-carboxylic acid methyl ester ethanesulfonate], the “elevated liver enzymes and drug-induced liver injury” value in data set [1] (clinical and postmarketing) is “ALT, AST, and bilirubin elevations have occurred”. Besides, the “reduction of the decline in lung function” value in data set [1] (two phase III trials, over one year) is recorded as “approximately 50%”. In addition, the “inhibition of TGFβ-induced αSMA expression, nintedanib alone” value with NHLF was “minimally inhibited”. Moreover, the “fibroblast to myofibroblast differentiation and/or pro-fibrotic activity of (myo)fibroblasts” value in data set [2] was “attenuated, but usually did not fully inhibit”.
Regarding `COc1nc(C)ccc1NC(=O)C1(c2ccccc2C(C)C)CN(S(N)(=O)=O)C1` [Example 5-8, 3-(2-isopropylphenyl)-N-(2-methoxy-6-methylpyridin-3-yl)-1-sulfamoylazetidine-3-carboxamide], the half-maximal inhibitory concentration (IC50) on human LPA1 receptor was 51 nM.
Same read-out and setting: as for `COc1cc(Cl)ncc1NC(=O)C1(c2ccccc2C(C)C)CN(C(=O)CC(C)(C)C(=O)O)C1` [Example 4-2, 4-(3-((6-chloro-4-methoxypyridin-3-yl)carbamoyl)-3-(2-isopropylphenyl)azetidin-1-yl)-2,2-dimethyl-4-oxobutanoic acid], the figure is 79 nM; as for “4-(3-((6-chloro-4-ethoxypyridin-3-yl)carbamoyl)-3-(2-isopropylphenyl)azetidin-1-yl)-2,2-dimethyl-4-oxobutanoic acid [Example 4-5]”, 12 nM; as for `Cc1ccc(NC(=O)C2(c3ccccc3C(C)C)CN(S(N)(=O)=O)C2)c(OC(C)C)n1` [Example 5-10, N-(2-isopropoxy-6-methylpyridin-3-yl)-3-(2-isopropylphenyl)-1-sulfamoylazetidine-3-carboxamide], 14 nM.
Regarding `Cc1ccc(=O)n(-c2ccccc2)c1` [pirfenidone, 5-methyl-1-phenyl-2-(1H)-pyridone], in data set [3] (2403 mg/day group), the “patients requiring dosage reduction or interruption for gastrointestinal events” value is 18.5%, the “patients who discontinued treatment due to a gastrointestinal event” value is 2.2% and the “patients with elevations ≥10×ULN in ALT or AST” value is recorded as 0.3%. In addition, the “incidence of elevations in ALT or AST ≥3× upper limit of normal (ULN)” value in data set [3] (2403 mg/day, three Phase 3 trials) is 3.7%. In addition, in data set [3] (clinical and postmarketing), the “drug-induced liver injury (DILI)” value is listed as “Cases of drug-induced liver injury (DILI) have been observed”. In addition, in data set [4] (2 mM pirfenidone, TGFβ 5 ng/ml, 48 h), the “inhibition of TGFβ-induced αSMA expression, pirfenidone alone” value was “minimally inhibited”. For the same compound, the “pirfenidone potency (IC50) on TGFβ-induced αSMA expression when combined with COMPOUND A” value in data set [4] (presence of 10 nM, 100 nM and 1000 nM COMPOUND A versus absence (FIG. 5)) was “gains in potency”. The “concentrations used to observe significant effects in vitro” value in data set [2] (in vitro) is on record as > 0.5 mM. The “fibroblast to myofibroblast differentiation and/or pro-fibrotic activity of (myo)fibroblasts” value in data set [2] is on record as “attenuated, but usually did not fully inhibit”.
On to `COc1cc(F)ncc1NC(=O)C1(c2ccccc2C(C)C)CN(S(N)(=O)=O)C1` [Example 5-1, N-(6-fluoro-4-methoxypyridin-3-yl)-3-(2-isopropylphenyl)-1-sulfamoylazetidine-3-carboxamide], for which the half-maximal inhibitory concentration (IC50) at human LPA1 receptor was determined as 19 nM.
On to `Cc1noc(-c2ccc(-c3ccc(C4(C(=O)O)CC4)cc3)cc2)c1NC(=O)O[C@H](C)c1ccccc1` [BMS-986020], for which, in data set [5] (IPF patients, b.i.d.), the “rate of decline in forced vital capacity (FVC) versus placebo” value is listed as “significantly slower rate of decline”. The hepatic enzymes entry in data set [5] (both BMS-986020 treatment groups) is given as “Dose-related elevations”. In addition, the “cases of cholecystitis determined to be related to treatment” value in data set [5] (study terminated early) is “three cases of cholecystitis”.
On to `CCOc1cc(Cl)ncc1NC(=O)C1(c2ccccc2C(C)C)CN(S(N)(=O)=O)C1` [Example 5-3, N-(6-chloro-4-ethoxypyridin-3-yl)-3-(2-isopropylphenyl)-1-sulfamoylazetidine-3-carboxamide], for which the IC50 at human LPA1 receptor stood at 3 nM.
With `COc1cc(Cl)ncc1NC(=O)C1(c2ccccc2C(C)C)CN(S(N)(=O)=O)C1` [Example 5-2, N-(6-chloro-4-methoxypyridin-3-yl)-3-(2-isopropylphenyl)-1-sulfamoylazetidine-3-carboxamide], the “Reduction of vascular leakage compared to vehicle group” value in data set [6] is reported as ≥ 60%.
Turning to `Cc1ccc(NC(=O)C2(c3ccccc3C(C)C)CN(CCCC(C)(C)C(=O)O)C2)c(OC(F)F)n1` [Example 3-1, 5-(3-((2-(difluoromethoxy)-6-methylpyridin-3-yl)carbamoyl)-3-(2-isopropylphenyl)azetidin-1-yl)-2,2-dimethylpentanoic acid], the IC50 on human LPA1 receptor is 13 nM.
Same read-out and setting: for `Cc1ccc(NC(=O)C2(c3ccccc3C(C)C)CN(S(N)(=O)=O)C2)c(OC(F)F)n1` [Example 5-7, N-(2-(difluoromethoxy)-6-methylpyridin-3-yl)-3-(2-isopropylphenyl)-1-sulfamoylazetidine-3-carboxamide] the value was 2 nM; for `CCOc1cc(Cl)ncc1NC(=O)C1(c2ccccc2C(C)C)CN(CCC(C)(C)C(=O)O)C1` [Example 2-4, 4-(3-((6-chloro-4-ethoxypyridin-3-yl)carbamoyl)-3-(2-isopropylphenyl)azetidin-1-yl)-2,2-dimethylbutanoic acid], 20 nM.
